According to patent US20240366809A1, “INHIBITOR OF PROSTATE SPECIFIC MEMBRANE ANTIGEN AND PHARMACEUTICAL USE THEREOF” (TIANJIN HENGRUI MEDICINE CO., LTD., priority 2021, published 2024):
Values joined by “and” are separate entries in the source; they are usually repeats but may differ in a detail not shown here. Equal entries are not always repeated. Values belong to the compound of their own block, whether it stands above or below them.

Legend:
rhPSMA [1] = target: T1, rhPSMA (Homo sapiens (Human), UniProt Q04609); experiment: Tests for inhibitory activity against PSMA (Test Example 1); assay type: biochemical; settings: rhPSMA 50 ng/well, substrate N-Acetyl-Asp-Glu, 37° C. 1 h
T1 sequence (Q04609 44-750): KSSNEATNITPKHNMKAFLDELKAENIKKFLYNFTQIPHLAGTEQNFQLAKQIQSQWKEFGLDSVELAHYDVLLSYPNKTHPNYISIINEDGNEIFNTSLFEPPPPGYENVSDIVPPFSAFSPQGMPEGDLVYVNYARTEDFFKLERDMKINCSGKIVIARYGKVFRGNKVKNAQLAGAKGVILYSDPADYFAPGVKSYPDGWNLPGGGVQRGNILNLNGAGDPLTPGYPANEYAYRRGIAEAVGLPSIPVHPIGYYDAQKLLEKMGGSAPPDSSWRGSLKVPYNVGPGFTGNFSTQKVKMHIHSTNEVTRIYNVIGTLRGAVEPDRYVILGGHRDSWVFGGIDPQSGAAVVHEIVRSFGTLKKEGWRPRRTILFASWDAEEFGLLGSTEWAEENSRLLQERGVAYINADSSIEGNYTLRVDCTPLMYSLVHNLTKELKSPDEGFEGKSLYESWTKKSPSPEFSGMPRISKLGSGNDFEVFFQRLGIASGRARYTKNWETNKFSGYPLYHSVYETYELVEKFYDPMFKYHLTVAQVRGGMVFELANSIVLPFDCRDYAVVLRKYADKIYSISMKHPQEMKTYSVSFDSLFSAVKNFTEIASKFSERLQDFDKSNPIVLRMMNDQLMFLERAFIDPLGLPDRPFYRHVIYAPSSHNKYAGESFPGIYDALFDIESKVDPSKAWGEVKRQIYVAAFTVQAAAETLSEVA
Description: • 1. Multifunctional microplate reader (SPARK, TECAN) • 2. rhPSMA (R&D, 4234-ZN) • 3. N-Acetyl-Asp-Glu (Sigma, A5930) • 4. OPA (Sigma, P0657)
PSMA inhibitors can bind to the enzyme PSMA to prevent the enzyme PSMA from decomposing the substrate N-Acetyl-Asp-Glu. In this experiment, the extent to which the substrate was decomposed and the resulting ultraviolet absorption changes were measured to evaluate the capacities of the PSMA inhibitors to bind to the enzyme PSMA, and the activity of the compounds was evaluated with IC50 values.
(§1) Buffer 1 (50 mM HEPES, 0.1 M NaCl, pH 7.5) was used to prepare a 0.4 μg/mL rhPSMA solution and a 40 μM solution of the substrate N-Acetyl-Asp-Glu. rhPSMA was mixed with the small molecules to be tested in a 96-well plate, with a constant rhPSMA content of 50 ng/well maintained. Meanwhile, the small molecules were step-wise diluted to final concentrations of 1 μM, 100 nM, 33.3 nM, 11.1 nM, 3.7 nM, 1.2 nM, 0.41 nM, 0.137 nM, 0.045 nM, and 0 nM. In addition, a positive control was set up using PSMA-617. The rhPSMA-small molecules were taken at 40 μL/well and well mixed with the 40 μM solution of the substrate N-Acetyl-Asp-Glu (40 μL/well). The mixtures were incubated at 37° C. in the dark for 1 h, were heated at 70° C. for 5 min to quench the reactions, and were cooled to room temperature. Buffer 2 (0.2 M NaOH, 0.1% beta-Mercaptoethanol) was used to prepare a 15 mM OPA solution. The OPA solution was added to the reaction systems at 80 μL/well and well mixed, and then the plate was incubated at room temperature for 10 min. The mixtures were taken at 100 μL/well and added to a 96-well Flat Black. With the excitation wavelength set to 330 nm and the emission wavelength to 465 nm, the intensity of signals was measured. IC50 values were obtained from dose-response curves.
The capacities of the compounds of the present disclosure to bind to the enzyme GCPII can be measured through the assay described above.

human organs = experiment: Absorbed doses of radiation, estimates for human organs (OLINDA software)
Description: The AUC of drug metabolisms was calculated from the biodistribution (Bio-D) data and imported into the OLINDA software to generate doses of radiation absorbed by all the organs.

LnCaP tumor = experiment: Biodistribution of 68Ga-labeled compounds in LnCaP tumor-bearing mice; assay type: in vivo
Description: After single tail-vein injections into mice, the in-vivo distributions of ^68Ga-labeled compound v (Example 9) and compound x (Example 11) in the positive LnCaP tumor-bearing mice were observed.
At 2 h after the injection, a total of 3 animals were sacrificed by cervical dislocation, and tissue samples were collected, including samples of the blood, the heart, the lungs, the liver, the spleen, the kidneys, the stomach, the intestine, the bones, the flesh, the brain, the salivary gland, the large intestine, the pancreas, and the tumor. The net weight of the tissues was measured first, and the radioactivity counts of the collected tissues were then measured using a γ-counter. The distributions of the labeled compounds in the different tissues and organs of the mice were measured. Meanwhile, a test sample was accurately diluted 100-fold, and 0.1 mL of the dilution was added to a counting tube and used as standard 1% ID (i.e., one percent of the injected dose). The radioactivity counts of the 1% ID standard and the biological samples were measured simultaneously on a γ-counter. The biodistribution data were expressed as the percentage of the radioactivity counts per gram of tissue or organ to the total injected dose (radioactivity counts) (% ID/g).

[2] = Pharmacokinetics in blood of normal mice after single tail-vein injection; assay type: in vivo; settings: for Blood % ID/g: normal mice, individual animals 1-4
Description: Through single tail-vein injections into mice, the pharmacokinetics of ^68Ga-v (Example 9) and PSMA-617 in blood was studied.
Each mouse was dosed at 50 μCi/100 μL, and blood samples were taken from the orbit 0.083, 0.25, 0.5, 1, 2, and 4 h post-dose (4 animals per time point). The blood samples were collected in pre-weighed sample tubes. The tubes were weighed and the weight of the blood samples was recorded. Then radioactivity counting was performed using a γ-counter. Meanwhile, a test sample was accurately diluted 100-fold, and 0.1 mL of the dilution was added to a counting tube and used as standard 1% ID (i.e., one percent of the injected dose). The radioactivity counts of the 1% ID standard and the biological samples were measured simultaneously on a γ-counter. The data on blood were expressed as the percentage of the radioactivity counts per gram of blood to the total injected dose (radioactivity counts) (% ID/g). Pharmacokinetic parameters were calculated from blood drug concentration data.

rhPSMA [3] = target: T1, rhPSMA; experiment: Affinity assays using enzyme activity method (Test Example 2); assay type: biochemical
Description: as §1

[4] = 2 h after injection, LnCaP tumor-bearing mice

Structure (SMILES): O=C([O-])CN1CCN(CC(=O)[O-])CCN(CC(=O)N2CCO[C@]3(CC[C@H](C(=O)N[C@@H](Cc4ccc5ccccc5c4)C(=O)NCCCC[C@H](NC(=O)N[C@@H](CCC(=O)O)C(=O)O)C(=O)O)CC3)C2)CCN(CC(=O)[O-])CC1.[68Ga+3] [^68Ga-v]
- absorbed dose of radiation, comparison with the labeled PSMA-617 in words (human organs; from Table 5): half of that resulting from ^68Ga-PSMA-617
- radiation dose estimate, Adrenals (human organs; human organ: Adrenals): 8.50E−03 mSv/MBq
- radiation dose estimate, Brain (human organs; human organ: Brain): 3.99E−02 mSv/MBq
- radiation dose estimate, Esophagus (human organs; human organ: Esophagus): 3.77E−03 mSv/MBq
- radiation dose estimate, Eyes (human organs; human organ: Eyes): 1.84E−03 mSv/MBq
- radiation dose estimate, Gallbladder Wall (human organs; human organ: Gallbladder Wall): 5.52E−03 mSv/MBq
- radiation dose estimate, Heart Wall (human organs; human organ: Heart Wall): 1.62E−02 mSv/MBq
- radiation dose estimate, Kidneys (human organs; human organ: Kidneys): 3.54E−02 mSv/MBq
- radiation dose estimate, Left colon (human organs; human organ: Left colon): 6.87E−03 mSv/MBq
- radiation dose estimate, Liver (human organs; human organ: Liver): 2.50E−02 mSv/MBq
- radiation dose estimate, Lungs (human organs; human organ: Lungs): 1.05E−02 mSv/MBq
- radiation dose estimate, Osteogenic Cells (human organs; human organ: Osteogenic Cells): 4.65E−03 mSv/MBq
- radiation dose estimate, Pancreas (human organs; human organ: Pancreas): 9.51E−03 mSv/MBq
- radiation dose estimate, Prostate (human organs; human organ: Prostate): 3.77E−03 mSv/MBq
- radiation dose estimate, Rectum (human organs; human organ: Rectum): 1.99E−01 mSv/MBq
- radiation dose estimate, Red Marrow (human organs; human organ: Red Marrow): 2.12E−03 mSv/MBq
- radiation dose estimate, Right colon (human organs; human organ: Right colon): 3.43E−03 mSv/MBq
- radiation dose estimate, Salivary Glands (human organs; human organ: Salivary Glands): 1.81E−03 mSv/MBq
- radiation dose estimate, Small Intestine (human organs; human organ: Small Intestine): 1.31E−01 mSv/MBq
- radiation dose estimate, Spleen (human organs; human organ: Spleen): 5.13E−02 mSv/MBq
- radiation dose estimate, Stomach Wall (human organs; human organ: Stomach Wall): 8.54E−02 mSv/MBq
- radiation dose estimate, Testes (human organs; human organ: Testes): 3.51E−04 mSv/MBq
- radiation dose estimate, Thymus (human organs; human organ: Thymus): 1.99E−03 mSv/MBq
- radiation dose estimate, Thyroid (human organs; human organ: Thyroid): 9.11E−04 mSv/MBq
- radiation dose estimate, Urinary Bladder Wall (human organs; human organ: Urinary Bladder Wall): 2.27E−03 mSv/MBq
- radiation dose estimate, Effective Dose (human organs; human: Effective Dose): 2.10E−02 mSv/MBq
- radiation dose estimate, Total Body (human organs; human: Total Body): 0.496E−02 mSv/MBq
- targeting effect on the LnCap tumor (LnCaP tumor; [4]): good targeting effect on the LnCap tumor
- tumor uptake, comparison in words (LnCaP tumor; [4]): better than ^68Ga-x (Example 11)'s
- uptake values in the other tissues (LnCaP tumor; 2 h after injection, tissues other than tumor, kidneys, liver, lung, spleen): very low
- uptake value in the LnCap tumor (LnCaP tumor; 2 h after single tail-vein injection, LnCaP tumor-bearing mice): ~10 Id %/g
- time estimated using 5 effective half-lives ([2]; 5 effective half-lives): 2.27 h
- Blood % ID/g ([2]; 0.083 h post-dose): 5.89 % ID/g and 4.98 % ID/g and 5.26 % ID/g and 4.11 % ID/g
- content of the radioactive substance in the blood ([2]; 0.25 h after the injections, mean of n=4): 1.25±0.22 % ID/g
- Blood % ID/g ([2]; 0.25 h post-dose): 1.33 % ID/g and 1.11 % ID/g and 1.52 % ID/g and 1.03 % ID/g
- Blood % ID/g ([2]; 0.5 h post-dose): 1.15 % ID/g and 0.52 % ID/g and 0.79 % ID/g and 0.99 % ID/g
- Blood % ID/g ([2]; 1 h post-dose): 0.33 % ID/g and 0.19 % ID/g (2×) and 0.16 % ID/g
- Blood % ID/g ([2]; 2 h post-dose): 0.07 % ID/g and 0.13 % ID/g and 0.10 % ID/g and 0.11 % ID/g
- Blood % ID/g ([2]; 4 h post-dose): 0.06 % ID/g and 0.02 % ID/g and 0.10 % ID/g and 0.08 % ID/g
- effective half-life Te ([2]; according to calculations): 27 min
- elimination phase half-life ([2]; blood of mice): 45.5 min
- half-life in the blood ([2]; blood of normal mice): 7.8 min
- AUCINF_obs ([2]; blood of normal mice, 0-4 h): 1.66 ± 0.24 h* % ID/g
- AUClast ([2]; blood of normal mice, 0-4 h): 1.67 ± 0.26 h* % ID/g
- Cl_obs ([2]; blood of normal mice, 0-4 h): 12.17 ± 1.77 μCi/h* % ID/g
- Cmax ([2]; blood of normal mice, 0-4 h): 5.06 ± 0.74 % ID/g
- MRTlast ([2]; blood of normal mice, 0-4 h): 23.4 ± 1.2 min
- Vz_obs ([2]; blood of normal mice, 0-4 h): 4.97 ± 1.09 μCi/% ID/g
- t1/2 ([2]; blood of normal mice, 0-4 h): 7.8 min
- t1/2 ([2]; blood of normal mice, 0-4 h, listed as 68Ga-V): 7.8 ± 2.4 min
- time after dosing at which substantially metabolized ([2]; estimated as 5 times the half-life): 3.9 h

Structure (SMILES): NCc1cnn([C@@H](Cc2ccccc2)C(=O)NCCCC[C@H](NC(=O)N[C@@H](CCC(=O)O)C(=O)O)C(=O)O)c1
- IC50 (rhPSMA [1]): 143 nM

Structure (SMILES): O=C(O)CC[C@H](NC(=O)N[C@@H](CCCCNC(=O)[C@H](Cc1ccc2ccccc2c1)NC(=O)N1CCC(CNC(=O)CN2CCN(CC(=O)O)CCN(CC(=O)O)CCN(CC(=O)O)CC2)CC1)C(=O)O)C(=O)O
- IC50 (rhPSMA [1]): 4.13 nM

Structure (SMILES): NCc1ccc(C(=O)Nc2cccc(C(=O)NCCCC[C@H](NC(=O)N[C@@H](CCC(=O)O)C(=O)O)C(=O)O)n2)cc1
- IC50 (rhPSMA [1]): 2.42 nM

Structure (SMILES): N[C@@H](Cc1ccncc1)C(=O)NCCCC[C@H](NC(=O)N[C@@H](CCC(=O)O)C(=O)O)C(=O)O
- IC50 (rhPSMA [1]): 178 nM

Further compounds by falling IC50 (rhPSMA [1]), results first:

- IC50 (rhPSMA [1]): 2.4 nM
Structure (SMILES): O=C(O)CC[C@H](NC(=O)N[C@@H](CCCCNC(=O)[C@H](Cc1ccc2ccccc2c1)NC(=O)C1CC12CCNCC2)C(=O)O)C(=O)O (stereo partly drawn)

- IC50 (rhPSMA [1]): 2.36 nM
- Ratio to PSMA-617 (rhPSMA [3]; ratio of IC50 values): 1.00
- IC50 (rhPSMA [3]; rhPSMA 50 ng/well, substrate N-Acetyl-Asp-Glu, 37° C. 1 h): 1.65 nM
Structure (SMILES): O=C(O)CC[C@H](NC(=O)N[C@@H](CCCCNC(=O)[C@H](Cc1ccc2ccccc2c1)NC(=O)[C@H]1CC[C@H](CNC(=O)CN2CCN(CC(=O)O)CCN(CC(=O)O)CCN(CC(=O)O)CC2)CC1)C(=O)O)C(=O)O [PSMA-617, reference compound]

- IC50 (rhPSMA [1]): 1.52 nM
Structure (SMILES): O=C(O)CC[C@H](NC(=O)N[C@@H](CCCCNC(=O)[C@H](Cc1ccc2ccccc2c1)NC(=O)[C@H]1CC[C@@]2(CC1)CN(C(=O)CN1CCN(CC(=O)O)CCN(CC(=O)O)CCN(CC(=O)O)CC1)CCO2)C(=O)O)C(=O)O [drawing 156]
